Experimental data: patent publication EP4813403A1, “USE OF GLP-1R/GIPR DOUBLE-TARGET AGONIST IN PREPARING ANIMAL DRUG” (Hangzhou Zhongmeihuadong Pharmaceutical Co., Ltd., priority 2023, dated 2025)

Columns and labels:
[1] = biological target: T1, rabbit GLP-1R (Oryctolagus cuniculus, UniProt G1SGD4); experiment: Agonistic activity on GLP-1R of different species (LANCE Ultra cAMP assay): rabbit; assay type: cell-based; settings: ratio of EC50 value of other species to human EC50 value
T1 construct: expressed in transfected cells
T1 sequence (G1SGD4 24-462): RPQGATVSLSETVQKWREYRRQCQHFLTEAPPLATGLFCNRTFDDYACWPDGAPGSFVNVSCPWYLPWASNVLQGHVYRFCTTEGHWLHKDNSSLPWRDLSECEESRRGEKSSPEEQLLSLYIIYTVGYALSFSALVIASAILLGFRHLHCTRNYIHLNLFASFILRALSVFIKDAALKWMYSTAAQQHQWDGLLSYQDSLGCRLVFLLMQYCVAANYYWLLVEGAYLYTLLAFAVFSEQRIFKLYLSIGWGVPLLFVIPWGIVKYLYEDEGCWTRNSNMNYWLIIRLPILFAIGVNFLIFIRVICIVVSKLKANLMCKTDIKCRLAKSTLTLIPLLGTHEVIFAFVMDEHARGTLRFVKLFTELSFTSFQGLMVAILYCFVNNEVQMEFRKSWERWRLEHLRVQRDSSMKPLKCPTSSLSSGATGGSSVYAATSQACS
Procedure: (§1) The in vitro agonistic activity of the compound of the present invention on GLP-1R was measured in cells stably expressing human, dog, mouse, rat, rabbit, and monkey GLP-1R (human GLP-1R-HEK, dog GLP-1R-HEK, mouse GLP-1R-HEK, rat GLP-1R- in HEK, rabbit GLP-1R-CHO, monkey GLP-1R-HEK cells). Human GLP-1R-HEK, dog GLP-1R-HEK, mouse GLP-1R-HEK, rat GLP-1R-HEK, rabbit GLP-1R-CHO, and monkey GLP-1R-HEK cells were resuspended in 1×Casein Stimulation Buffer (HBSS, 5 mM HEPES, 0.5 mM IBMX, 0.1% casein, pH7.4), and seeded into a 384-well cell culture plate at 9 µL/well (cell numbers being 1000, 1000, 1000, 1500, 1000, 1000 cells/well, respectively). 1 µL of 1×Casein Stimulation Buffer containing 10× compound was added to the above-mentioned 384-well cell culture plate. The plate was incubated at 37 °C for 30 minutes. After the incubation was completed, 5 µL of Eu-cAMP working solution and 5 µL of Ulight^TM-cAMP working solution were added sequentially, centrifuged and then incubated at room temperature for 1 hour. The readings at 665 nm and 620 nm were determined with a 330 nm excitation light on a microplate reader. The 665 nm/620 nm reading ratio was calculated. […] GraphPad was used to perform nonlinear regression according to the response percentage and the concentration of the compound added to obtain the EC50 value for each compound.

[2] = biological target: T2, mouse GIPR (Mus musculus, UniProt Q0P543); experiment: Agonistic activity on GIPR of different species (LANCE Ultra cAMP assay): mouse; assay type: cell-based; settings: ratio of EC50 value of other species to human EC50 value
T2 construct: expressed in transfected cells; host or cells: CHO-K1 (transient)
T2 sequence (Q0P543 19-460): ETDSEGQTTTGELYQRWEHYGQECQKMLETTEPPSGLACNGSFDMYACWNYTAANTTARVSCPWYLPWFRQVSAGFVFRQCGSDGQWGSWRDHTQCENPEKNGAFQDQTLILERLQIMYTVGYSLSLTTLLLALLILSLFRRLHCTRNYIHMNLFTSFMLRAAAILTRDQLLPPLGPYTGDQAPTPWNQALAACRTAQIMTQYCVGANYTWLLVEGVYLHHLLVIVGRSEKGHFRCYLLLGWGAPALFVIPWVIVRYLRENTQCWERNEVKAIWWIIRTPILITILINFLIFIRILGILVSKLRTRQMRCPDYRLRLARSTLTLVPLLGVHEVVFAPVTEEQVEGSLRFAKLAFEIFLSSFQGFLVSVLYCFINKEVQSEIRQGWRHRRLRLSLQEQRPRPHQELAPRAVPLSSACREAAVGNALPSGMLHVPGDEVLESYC

[3] = tested on: DIO mice; experiment: Weight loss effect in DIO mice obesity model; assay type: in vivo; design: Cumulative food intake / Fasting blood glucose / Insulin / Serum TC / ALT: unit not given here; settings: for Insulin resistance index / Serum TC / Fasting blood glucose / Insulin / Body weight / Cumulative food intake / Liver Weight / ALT: Mean±SEM, 10 mice; for Insulin: D30 serum; for Body weight / Cumulative food intake / Liver Weight / Total abdominal fat: s.c. once every 3 days for 4 weeks; for Total abdominal fat: sum of perirenal and paratesticular fat; for ALT: serum
Procedure: In this study, 26-week-old male DIO mice were used. DIO mice were housed in appropriate cages. DIO mice were housed in an environment-monitored and well-ventilated SPF-grade animal room, with the temperature maintained between 20 and 26°C and relative humidity between 40% and 70%. […] The mice received food and water ad libitum. […] The mice were subcutaneously administrated once every 3 days for 4 consecutive weeks. […] Food intake was measured once daily after administration. RBG was measured before grouping and at 48 h after each administration. After fasted for 5 h on D30 (no water deprivation was required), FBG and glycated hemoglobin A1c (HbA1c) were detected, and blood was collected intravenously to separate the serum. A mouse insulin ELISA kit was used to detect the insulin content in the serum, and a biochemistry analyser was used to detect total cholesterol (TC), TG, low-density lipoprotein cholesterol (LDL), high-density lipoprotein cholesterol (HDL), free fatty acid (FFA), ALT, and aspartate aminotransferase (AST) content. The liver was collected, the perirenal and paratesticular fat tissues were separated and weighed, the organ-body ratio was calculated. The liver was stained with HE and Oil Red O for pathological scoring. The data results were statistically analyzed using one-way analysis of variance (ANOVA). A Levene's test was performed to test for variance homogeneity. If the result was homogeneous (P>0.05), a one-way analysis of variance (ANOVA) would be performed. […] In the case of heterogeneity of variance (P ≤0.05 ), a Dunnett's T3 test would be performed. Results were expressed as mean and standard deviation (Mean ± SEM). The test level was 0.05. Both statistical significance and biological significance were considered when analyzing the results.

[4] = tested on: monkey GLP-1R; experiment: Agonistic activity on GLP-1R of different species (LANCE Ultra cAMP assay): monkey; assay type: cell-based; settings: ratio of EC50 value of other species to human EC50 value
Procedure: as §1

[5] = 0.3 nmol/kg s.c. once every 3 days
[6] = 1 nmol/kg s.c. once every 3 days
[7] = 3 nmol/kg s.c. once every 3 days
[8] = 30 nmol/kg s.c. once every 3 days

In the case of `CC[C@H](C)[C@H](NC(=O)C(C)(C)NC(=O)[C@H](Cc1ccc(O)cc1)NC(=O)[C@H](CC(=O)O)NC(=O)[C@H](CO)NC(=O)[C@@H](NC(=O)C(C)(Cc1ccccc1)NC(=O)[C@@H](NC(=O)CNC(=O)[C@H](CCC(=O)O)NC(=O)C(C)(C)NC(=O)[C@@H](N)Cc1ccc(O)cc1)[C@@H](C)O)[C@@H](C)O)C(=O)NC(C)(C)C(=O)N[C@@H](CC(C)C)C(=O)N[C@@H](CC(=O)O)C(=O)N[C@@H](CCCCN)C(=O)N[C@@H](CCC(N)=O)C(=O)N[C@@H](C)C(=O)N[C@@H](CCC(N)=O)C(=O)N[C@@H](C)C(=O)N[C@@H](CCC(=O)O)C(=O)N[C@@H](Cc1ccccc1)C(=O)N[C@H](C(=O)N[C@@H](CCCCNC(=O)COCCOCCNC(=O)COCCOCCNC(=O)COCCOCCNC(=O)CC[C@H](NC(=O)CCCCCCCCCCCCCCCCCCCCC(=O)O)C(=O)O)C(=O)N[C@@H](Cc1c[nH]c2ccccc12)C(=O)N[C@@H](CC(C)C)C(=O)N[C@@H](CC(C)C)C(=O)N[C@@H](CCCCN)C(=O)NCC(=O)NCC(=O)N1CCC[C@H]1C(=O)N[C@@H](CO)C(=O)N[C@@H](CO)C(=O)NCC(=O)N[C@@H](C)C(=O)N1CCC[C@H]1C(=O)N1CCC[C@H]1C(=O)N1CCC[C@H]1C(=O)N[C@@H](CO)C(=O)N[C@@H](CCCCN)C(N)=O)C(C)C` (stereo partly drawn) [Compound P016], the “GLP-1R EC50 ratio” value [1] is reported as 1.05, the “GIPR EC50 ratio” value [2] is reported as 12.49 and the Insulin resistance index [3, 5] is reported as 43.94±6.288. For the same compound, the “Serum TC” value [3, 5] was 4.07±0.26, the Insulin resistance index [3, 6] was 21.532±3.705 and the “Serum TC” value [3, 6] was 3.26±0.20. The Insulin resistance index [3, 7] was 11.991±1.907, the “Serum TC” value [3, 7] was 2.61±0.13 and the Insulin resistance index [3, 8] was 5.179±1.178. For the same compound, the “Serum TC” value [3, 8] was 2.50±0.18, the Fasting blood glucose ([3]; D30, 0.3 nmol/kg s.c. once every 3 days) was 13.78±0.39 and the Fasting blood glucose ([3]; D30, 1 nmol/kg s.c. once every 3 days) was 11.23±0.40. For the same compound, the Fasting blood glucose ([3]; D30, 3 nmol/kg s.c. once every 3 days) was 10.36±0.67, the Fasting blood glucose ([3]; D30, 30 nmol/kg s.c. once every 3 days) was 8.39±0.30 and the Insulin [3, 5] was 3.285±0.481. The Insulin [3, 6] was 1.911±0.29, the Insulin [3, 7] was 1.196±0.185 and the Insulin [3, 8] was 0.624±0.130. For the same compound, the Body weight ([3]; 0.3 nmol/kg) was 45.4 ± 1.3 g, the Cumulative food intake ([3]; 0.3 nmol/kg) was 75.75±2.81 and the Liver Weight ([3]; 0.3 nmol/kg) was 1.552 ± 0.106 g. For the same compound, the Total abdominal fat ([3]; 0.3 nmol/kg) was 2.631 ± 0.069 g, the Body weight ([3]; 1 nmol/kg) was 38.3 ± 1.1 g and the Cumulative food intake ([3]; 1 nmol/kg) was 61.40±1.58. The Liver Weight ([3]; 1 nmol/kg) was 1.191 ± 0.075 g, the Total abdominal fat ([3]; 1 nmol/kg) was 1.849 ± 0.181 g and the Body weight ([3]; 3 nmol/kg) was 34.1 ± 0.7 g. It also gave a Cumulative food intake ([3]; 3 nmol/kg) of 55.47±2.72, a Liver Weight ([3]; 3 nmol/kg) of 1.069 ± 0.029 g and a Total abdominal fat ([3]; 3 nmol/kg) of 0.972 ± 0.076 g. It also gave a Body weight ([3]; 30 nmol/kg) of 29 ± 0.7 g, a Cumulative food intake ([3]; 30 nmol/kg) of 48.38±2.31 and a Liver Weight ([3]; 30 nmol/kg) of 0.995 ± 0.029 g. For the same compound, the Total abdominal fat ([3]; 30 nmol/kg) was 0.461 ± 0.034 g, the ALT [3, 5] was 95.60±14.09 and the ALT [3, 6] was 43.90±3.86. The ALT [3, 7] was 52.80±9.62, the ALT [3, 8] was 49.60±5.67 and the “GLP-1R EC50 ratio” value [4] was 2.66.
